The results in this text go back to US20250051346A1 (priority 2021, published 2025).

What is called EC50 is the midpoint of the concentration-response curve.

The target of experiment [1] is T1, 5-HT2A (Homo sapiens, UniProt P28223). Kind of experiment: Serotonin 5-HT2A in vitro cellular IPOne antagonism assay. The arrangement: host or cells: CHO-K1. In kind it is cell-based. The settings on record: CHO-K1 cells; reference agonist a-Me-5HT. As to the method:
Serotonin 5-HT2A In Vitro Cellular IPOne Antagonism Assay. The 5-HT2A IPOne HTRF assay was performed at Epics Therapeutics S.A. (Belgium, FAST-0505I) in antagonism mode using conventional methods. Briefly, CHO-K1 cells expressing human recombinant 5-HT2A receptor grown to mid-log phase in culture media without antibiotics were detached with PBS-EDTA, centrifuged, and resuspended in medium without antibiotics buffer. 20,000 cells are distributed in a 96 well plate and incubated overnight at 37° C. with 5% CO2.
For antagonist testing, a reference agonist a-Me-5HT was added and fluorescence signal monitored for several minutes, followed by addition of 20 μl of assay buffer plus 20 μl of test compound or reference antagonist ketanserin, in each well. The plate was incubated for 60 min. at 37° C. with 5% CO2.
After addition of the lysis buffer containing IP1-d2 and anti-IP1 cryptate detection reagents, plates were incubated 1-hour at room temperature, and fluorescence ratios are measured according to the manufacturer specification, with the HTRF kit.

The target of experiment [2] is T1, 5-HT2A. In words: Serotonin 5-HT2A in vitro cellular IPOne agonism assay. The arrangement: host or cells: CHO-K1. The class given is cell-based. The settings on record: CHO-K1 cells, 60 min. Here is the method: Serotonin 5-HT2A In Vitro Cellular IPOne Agonism Assay. The 5-HT2A IPOne HTRF assay was performed at Epics Therapeutics S.A. (Belgium, FAST-0505I) using conventional methods. Briefly, CHO-K1 cells expressing human recombinant 5-HT2A receptor grown to mid-log phase in culture media without antibiotics were detached with PBS-EDTA, centrifuged, and resuspended in medium without antibiotics buffer. 20,000 cells are distributed in a 96 well plate and incubated overnight at 37° C. with 5% CO2.
For agonist testing, the medium was removed and 20 μl of assay buffer plus 20 μl of test compound or reference agonist were added in each well. The plate was incubated for 60 min. at 37° C. with 5% CO2.
After addition of the lysis buffer containing IP1-d2 and anti-IP1 cryptate detection reagents, plates were incubated 1-hour at room temperature, and fluorescence ratios were measured according to the manufacturer specification, with the HTRF kit.

Experiment [3] deals with T1, 5-HT2A. Kind of experiment: Serotonin 5-HT2A in vitro radioligand binding competition assay. Details: purchased Epics Therapeutics S.A. (Belgium), contract assay FAST-0505B; host or cells: membrane extracts. Conditions: [3H]-DOI radiotracer, membrane extracts, read-out: 5HT2A R[…] ACTIVITY
Here is the method:
Serotonin 5-HT2A In Vitro Radioligand Binding Competition Assay. The 5-HT2A radioligand binding competition assay was performed at Epics Therapeutics S.A. (Belgium, FAST-0505B) using conventional methods. Briefly, competition binding was performed in duplicate in the wells of a 96 well plate (Master Block, Greiner, 786201) containing binding buffer (optimized for each receptor), membrane extracts (amount of protein/well optimized for each receptor), radiotracer [^3H]-DOI (final concentration optimized for each receptor) and test compound. Nonspecific binding was determined by co-incubation with 200-fold excess of cold competitor. The samples were incubated in a final volume of 0.1 ml at a temperature and for a duration optimized for each receptor and then filtered over filter plates. Filters were washed six times with 0.5 ml of ice-cold washing buffer (optimized for each receptor) and 50 μl of Microscint 20 (Packard) were added in each well. The plates were incubated 15 min on an orbital shaker and then counted with a TopCount™ for 1 min/well.

T1 sequence (P28223 whole entry): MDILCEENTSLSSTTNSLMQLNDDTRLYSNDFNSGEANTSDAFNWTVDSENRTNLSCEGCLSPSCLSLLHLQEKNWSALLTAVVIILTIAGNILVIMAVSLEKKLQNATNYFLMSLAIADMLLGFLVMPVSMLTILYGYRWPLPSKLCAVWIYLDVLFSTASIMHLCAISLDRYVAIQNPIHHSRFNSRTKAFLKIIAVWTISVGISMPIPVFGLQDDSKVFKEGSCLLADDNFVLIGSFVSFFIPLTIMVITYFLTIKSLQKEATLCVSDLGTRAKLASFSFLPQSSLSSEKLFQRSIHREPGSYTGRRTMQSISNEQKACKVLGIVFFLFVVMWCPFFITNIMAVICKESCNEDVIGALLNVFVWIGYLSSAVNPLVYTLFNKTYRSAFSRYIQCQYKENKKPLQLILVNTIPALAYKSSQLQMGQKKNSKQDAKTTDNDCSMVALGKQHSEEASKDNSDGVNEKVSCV

With `COc1cccc2oc3c(c12)CN(C1CCC1)CCC3` [Compound 14, 2-cyclobutyl-10-methoxy-2,3,4,5-tetrahydro-1H-benzofuro[3,2-c]azepine], the IC50 on 5-HT2A [1] is 101 to 1000 nM; on 5-HT2A [3] (benzofurans) it was 1000 to 10000 nM. The same compound had a half-maximal effective concentration (EC50) on 5-HT2A [2] (benzofurans) of 1000 to 10000 nM.
For `CN1CCc2oc3cc(F)ccc3c2CC1` [Compound 23, 8-fluoro-3-methyl-2,3,4,5-tetrahydro-1H-benzofuro[2,3-d]azepine], the IC50 on 5-HT2A [1] and at 5-HT2A [3] (benzofurans) was 101 to 1000 nM throughout. The compound further gave an EC50 on 5-HT2A [2] (benzofurans) of 101 to 1000 nM.
As for `c1ccc2c3c(oc2c1)CCN(C1CCC1)CC3` [Compound 28, 3-cyclobutyl-2,3,4,5-tetrahydro-1H-benzofuro[2,3-d]azepine], the results for the IC50 at 5-HT2A [1] and on 5-HT2A [3] (benzofurans) were more than 10000 nM and 1000 to 10000 nM, respectively. Moreover, the EC50 at 5-HT2A [2] (benzofurans) is more than 10000 nM.
As for `CN1CCc2oc3ccccc3c2CC1` [Compound 30, 3-methyl-2,3,4,5-tetrahydro-1H-benzofuro[2,3-d]azepine], the IC50 on 5-HT2A [1] and at 5-HT2A [3] (benzofurans) was 101 to 1000 nM in each case. Further, at 5-HT2A [2] (benzofurans), the EC50 is more than 10000 nM.
Turning to `Fc1ccc2c3c(sc2c1)CCN(C1CCC1)CC3` [Compound 32, 3-cyclobutyl-8-fluoro-2,3,4,5-tetrahydro-1H-benzo[4,5]thieno[2,3-d]azepine], the IC50 on 5-HT2A [1] and on 5-HT2A [3] (benzothiophenes) was 10 to 100 nM in each case. Further, the EC50 at 5-HT2A [2] (benzothiophenes) is more than 10000 nM.
Take `CN1CCc2sc3cc(F)ccc3c2CC1` [Compound 33, 8-fluoro-3-methyl-2,3,4,5-tetrahydro-1H-benzo[4,5]thieno[2,3-d]azepine]: the IC50 on 5-HT2A [1] and on 5-HT2A [3] (benzothiophenes) was 10 to 100 nM in each case. This compound had an EC50 at 5-HT2A [2] (benzothiophenes) of 10 to 100 nM.
`COc1ccc2c3c(sc2c1)CCN(C)CC3` [Compound 34, 8-methoxy-3-methyl-2,3,4,5-tetrahydro-1H-benzo[4,5]thieno[2,3-d]azepine]: the IC50 fell in the range of 101 to 1000 nM at 5-HT2A [1] and 1000 to 10000 nM at 5-HT2A [3] (benzothiophenes). Moreover, the EC50 at 5-HT2A [2] (benzothiophenes) was 1000 to 10000 nM.
In the case of `c1ccc(COc2cccc3oc4c(c23)CCNCC4)cc1` [Compound 47, 10-(benzyloxy)-2,3,4,5-tetrahydro-1H-benzofuro[2,3-d]azepine], the IC50 at 5-HT2A [1] and at 5-HT2A [3] (benzofurans) was 101 to 1000 nM throughout. Moreover, the EC50 at 5-HT2A [2] (benzofurans) lay within 1000 to 10000 nM.
`FC(F)(F)Oc1ccc2c3c(oc2c1)CCCNC3` [Compound 49, 8-(trifluoromethoxy)-2,3,4,5-tetrahydro-1H-benzofuro[3,2-c]azepine] had an EC50 at 5-HT2A [2] (benzofurans) of 1000 to 10000 nM. In addition, the IC50 on 5-HT2A [3] (benzofurans) lay in the range of 1000 to 10000 nM.
The compound `c1ccc(COc2ccc3c4c(oc3c2)CCCNC4)cc1` [Compound 50, 8-(benzyloxy)-2,3,4,5-tetrahydro-1H-benzofuro[3,2-c]azepine] returned an EC50 at 5-HT2A [2] (benzofurans) of more than 10000 nM. Besides, the IC50 at 5-HT2A [3] (benzofurans) is 1000 to 10000 nM.
The matching figures for `c1ccc(COc2cccc3oc4c(c23)CNCCC4)cc1` [Compound 51, 10-(benzyloxy)-2,3,4,5-tetrahydro-1H-benzofuro[3,2-c]azepine]: more than 10000 nM and 1000 to 10000 nM.
Compound `CN1CCCc2oc3cc(C(F)(F)F)ccc3c2C1` [Compound 52, 2-methyl-8-(trifluoromethyl)-2,3,4,5-tetrahydro-1H-benzofuro[3,2-c]azepine] had an EC50 at 5-HT2A [2] (benzofurans) of more than 10000 nM. For the same compound, on 5-HT2A [3] (benzofurans), the IC50 was 1000 to 10000 nM.
Turning to `CN1CCCc2oc3cc(OC(F)(F)F)ccc3c2C1` [Compound 53, 2-methyl-8-(trifluoromethoxy)-2,3,4,5-tetrahydro-1H-benzofuro[3,2-c]azepine], the EC50 at 5-HT2A [2] (benzofurans) was more than 10000 nM. Besides, the IC50 at 5-HT2A [3] (benzofurans) is more than 10000 nM.
In turn, `CN1CCCc2oc3cc(OCc4ccccc4)ccc3c2C1` [Compound 54, 8-(benzyloxy)-2-methyl-2,3,4,5-tetrahydro-1H-benzofuro[3,2-c]azepine] came in with an EC50 at 5-HT2A [2] (benzofurans) of more than 10000 nM. The IC50 on 5-HT2A [3] (benzofurans) lay within 101 to 1000 nM.
On to `CN1CCCc2oc3cccc(OCc4ccccc4)c3c2C1` [Compound 55, 10-(benzyloxy)-2-methyl-2,3,4,5-tetrahydro-1H-benzofuro[3,2-c]azepine], for which, at 5-HT2A [2] (benzofurans), the EC50 is more than 10000 nM. Further, the IC50 on 5-HT2A [3] (benzofurans) lay within 10 to 100 nM.
The compound `c1ccc2c3c(sc2c1)CCNCC3` [Compound 65, 2,3,4,5-tetrahydro-1H-benzo[4,5]thieno[2,3-d]azepine] yielded an EC50 on 5-HT2A [2] (benzothiophenes) of 101 to 1000 nM. The IC50 at 5-HT2A [3] (benzothiophenes) was 10 to 100 nM.
The matching figures for `FC(F)(F)Oc1ccc2c3c(sc2c1)CCNCC3` [Compound 66, 8-(trifluoromethoxy)-2,3,4,5-tetrahydro-1H-benzo[4,5]thieno[2,3-d]azepine]: 101 to 1000 nM and 101 to 1000 nM.
The matching figures for `FC(F)(F)Oc1cccc2sc3c(c12)CCNCC3` [Compound 67, 10-(trifluoromethoxy)-2,3,4,5-tetrahydro-1H-benzo[4,5]thieno[2,3-d]azepine]: 10 to 100 nM and 10 to 100 nM.
Taken in the same sequence, the figures for `FC(F)(F)Oc1cccc2sc3c(c12)CCN(C1CCC1)CC3` [Compound 68, 3-cyclobutyl-10-(trifluoromethoxy)-2,3,4,5-tetrahydro-1H-benzo[4,5]thieno[2,3-d]azepine] were 1000 to 10000 nM and 1000 to 10000 nM.
Consider `FC(F)(F)CN1CCc2sc3ccccc3c2CC1` [Compound 69, 3-(2,2,2-trifluoroethyl)-2,3,4,5-tetrahydro-1H-benzo[4,5]thieno[2,3-d]azepine], for which, on 5-HT2A [2] (benzothiophenes), the EC50 is more than 10000 nM. In addition, the IC50 on 5-HT2A [3] (benzothiophenes) was more than 10000 nM.
Take `COc1ccc2c3c(sc2c1)CCN(CC(F)(F)F)CC3` [Compound 70, 8-methoxy-3-(2,2,2-trifluoroethyl)-2,3,4,5-tetrahydro-1H-benzo[4,5]thieno[2,3-d]azepine]: on 5-HT2A [2] (benzothiophenes), the EC50 was more than 10000 nM. Further, the IC50 at 5-HT2A [3] (benzothiophenes) was more than 10000 nM.
With `Fc1ccc2c3c(sc2c1)CCN(CC(F)(F)F)CC3` [Compound 71, 8-fluoro-3-(2,2,2-trifluoroethyl)-2,3,4,5-tetrahydro-1H-benzo[4,5]thieno[2,3-d]azepine], the EC50 at 5-HT2A [2] (benzothiophenes) is more than 10000 nM. In addition, the IC50 at 5-HT2A [3] (benzothiophenes) is more than 10000 nM.
With `CN1CCc2sc3ccccc3c2CC1` [Compound 72, 3-methyl-2,3,4,5-tetrahydro-1H-benzo[4,5]thieno[2,3-d]azepine], the IC50 on 5-HT2A [1] and at 5-HT2A [3] (benzothiophenes) was 10 to 100 nM in each case. Also, the EC50 at 5-HT2A [2] (benzothiophenes) is 101 to 1000 nM.
Consider `COc1ccc2c3c(sc2c1)CCN(C1CCC1)CC3` [Compound 74, 3-cyclobutyl-8-methoxy-2,3,4,5-tetrahydro-1H-benzo[4,5]thieno[2,3-d]azepine], for which the EC50 on 5-HT2A [2] (benzothiophenes) was more than 10000 nM. The IC50 at 5-HT2A [3] (benzothiophenes) was more than 10000 nM.
In turn, `FC(F)(F)Oc1ccc2c3c(sc2c1)CCN(C1CCC1)CC3` [Compound 76, 3-cyclobutyl-8-(trifluoromethoxy)-2,3,4,5-tetrahydro-1H-benzo[4,5]thieno[2,3-d]azepine] registered an EC50 at 5-HT2A [2] (benzothiophenes) of more than 10000 nM. Besides, the IC50 on 5-HT2A [3] (benzothiophenes) was in the range of 1000 to 10000 nM.
The matching figures for `c1ccc(COc2ccc3c4c(sc3c2)CCNCC4)cc1` [Compound 77, 8-(benzyloxy)-2,3,4,5-tetrahydro-1H-benzo[4,5]thieno[2,3-d]azepine]: more than 10000 nM and 1000 to 10000 nM.
With `c1ccc(COc2ccc3c4c(sc3c2)CCN(C2CCC2)CC4)cc1` [Compound 78, 8-(benzyloxy)-3-cyclobutyl-2,3,4,5-tetrahydro-1H-benzo[4,5]thieno[2,3-d]azepine], the EC50 at 5-HT2A [2] (benzothiophenes) was more than 10000 nM. The IC50 on 5-HT2A [3] (benzothiophenes) is 1000 to 10000 nM.
Taken in the same sequence, the figures for `CN1CCc2sc3cc(OCc4ccccc4)ccc3c2CC1` [Compound 79, 8-(benzyloxy)-3-methyl-2,3,4,5-tetrahydro-1H-benzo[4,5]thieno[2,3-d]azepine] were more than 10000 nM and 101 to 1000 nM.
The matching figures for `Oc1ccc2c3c(sc2c1)CCNCC3` [Compound 80, 2,3,4,5-tetrahydro-1H-benzo[4,5]thieno[2,3-d]azepin-8-ol]: 101 to 1000 nM and 10 to 100 nM.
